For assay [1], the target named is T1, mitochondrial complex I (Bos taurus, UniProt P03887+P17694+P42026). Put plainly: NADH:decylubiquinone/DCPIP complex I kinetics in freeze-thawed mitochondria. Format: biochemical.
Assay [2] has as its target T1, mitochondrial complex I. Briefly: Michaelis-Menten kinetics with DCPIP reduction, NADH as electron donor. Format: cell-based.

Here are results for two molecules from paper PMC7059627 (FASEB bioAdvances, 2020).

T1 sequence (P42026 38-216): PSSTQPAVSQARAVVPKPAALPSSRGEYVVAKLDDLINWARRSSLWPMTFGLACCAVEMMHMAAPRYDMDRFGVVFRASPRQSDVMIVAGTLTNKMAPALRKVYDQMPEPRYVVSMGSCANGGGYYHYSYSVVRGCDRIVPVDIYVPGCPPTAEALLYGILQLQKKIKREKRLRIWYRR
T1 sequence (P03887 whole entry): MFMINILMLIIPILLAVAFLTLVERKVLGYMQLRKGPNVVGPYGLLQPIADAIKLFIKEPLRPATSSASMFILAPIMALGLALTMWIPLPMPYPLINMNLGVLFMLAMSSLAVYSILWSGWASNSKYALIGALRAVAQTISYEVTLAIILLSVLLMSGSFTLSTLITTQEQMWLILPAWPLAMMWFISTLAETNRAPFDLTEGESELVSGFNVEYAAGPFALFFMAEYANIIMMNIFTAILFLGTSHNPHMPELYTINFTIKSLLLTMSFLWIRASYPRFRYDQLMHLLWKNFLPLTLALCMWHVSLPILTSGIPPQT
T1 sequence (P17694 34-463): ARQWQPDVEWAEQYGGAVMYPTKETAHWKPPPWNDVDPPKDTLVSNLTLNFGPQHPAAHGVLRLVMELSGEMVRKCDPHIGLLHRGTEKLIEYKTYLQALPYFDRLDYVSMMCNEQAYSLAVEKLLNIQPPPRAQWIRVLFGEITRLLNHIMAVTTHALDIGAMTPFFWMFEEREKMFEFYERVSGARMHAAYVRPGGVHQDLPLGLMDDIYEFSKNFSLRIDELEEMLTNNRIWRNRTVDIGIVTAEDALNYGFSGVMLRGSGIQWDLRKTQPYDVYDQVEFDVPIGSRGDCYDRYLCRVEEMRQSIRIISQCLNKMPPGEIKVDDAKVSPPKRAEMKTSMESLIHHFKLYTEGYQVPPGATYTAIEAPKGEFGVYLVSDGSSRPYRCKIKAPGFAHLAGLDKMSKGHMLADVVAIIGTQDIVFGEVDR

Broadly, the Ki is a measure of affinity in units of concentration, obtained from inhibition or displacement. The low end stands for tighter binding, the high end for weaker binding. In turn, `CCCCCCCc1[nH]c2ccccc2c(=O)c1O` [PQS, 2‐heptyl‐3‐hydroxy‐4(1H)‐quinolone] gave a Ki in assay [1] of 560 nM.
Take `CCCCCCCCCCC1=C(C)C(=O)C(OC)=C(OC)C1=O` [decylubiquinone]: the “Michaelis-Menten kinetics with DCPIP reduction, NADH as electron donor” value in assay [2] was “Kinetics with the substrate analog decylubiquinone at different PQS concentrations were measured”.
